The assay can be described thus: Hydrogen peroxide remaining in solutions of PA or PEDOT-S/OH. The note with it: hydrogen peroxide solution, after 3 days. On the procedure: The presence of ROS was determined using CellROX Green Reagent (ThermoFisher). Briefly, CellROX was added to cells for a final concentration of 5 μM and incubated for 30 mins at 37° C. Wells were washed 3× with PBS and fluorescence intensity was read at 485/520 nm using Cyation3. For solution studies, CellROX was added to solutions of PEDOT or PA containing 10 μM H2O2 at various time points.

Turning to C16-A2G2E4GIKVAV [PA], the peroxide still present is on record as approximately 75%.
